Measurements reported in patent US20140242093A1, “METHODS AND COMPOSITIONS FOR MODULATING THE INNATE IMMUNE RESPONSE AND/OR MYOGENESIS IN A MAMMALIAN SUBJECT” (FRED HUTCHINSON CANCER RESEARCH CENTER, priority 2011, published 2014).

Tested on: human genome (hg18)
Experiment: ChIP-Seq of DUX4 binding sites in transduced primary myoblasts
Conditions: for max.cov (peak height): non-repeat binding site
Method: Non-redundant reads unambiguously mapped to the human genome were computationally extended to a total length of 200 nucleotides and “peaks” were defined as regions where the number of reads was higher than a statistical threshold compared to the background, as described below. Reads mapping to the X and Y chromosomes were excluded from the analysis.
ChIP was performed and ChIP DNA samples were prepared as previously described in Cao et al., Dev. Cell 18:662-674 (2010), hereby incorporated herein by reference. […] Anti-DUX4 N-terminus polyclonal antibodies FH106 and FH107 were combined to immunoprecipitate DUX4-s. The samples were sequenced with Illumina Genome Analyzer II.
Sequences were extracted by Illumina package GApipeline and reads were aligned using BWA to the human genome (hg18). The inventors only kept one of the duplicated sequences to minimize the artifacts of PCR amplification. Each read was extended in the sequencing orientation to a total of 200 bases to infer the coverage at each genomic position. Peak calling was performed by a house developed R package “peakSig” (pending submission to Bioconductor), which model background reads by a negative binomial distribution. The negative binomial distribution can be viewed as a continuous mixture of Poisson distribution where the mixing distribution of the Poisson rate is modeled as a Gamma prior. This prior distribution is used to capture the variation of background reads density across the genome. Model parameters were estimated by fitting the truncated distribution on the number of bases with low coverage (one to three), to avoid the problem of inferring effective genome size excluding the non-mappable regions, and to eliminate contamination of any foreground signals in the high coverage regions. The inventors also fit a GC dependent mixture model so that the significance of the peaks is determined not only by peak height, but also by the GC content of the neighboring genomic regions.
Discriminative motif discovery was carried out as described in Palii et al. (2011), in which motifs were identified that distinguish a positive and a negative sequence dataset, which in this study, the positive sequences correspond to Dux4 binding sites and negative sequences correspond to the randomly sampled flanking regions of Dux4 binding sites. To generate more accurate presentation of the Dux4 binding sites from the consensus pattern returned by this analysis, the inventors tried to learn a positional weight matrix (PWM) model, using the matches of the consensus pattern as the seed to initialize the iterative expectation-maximization (EM) refinement process similar to MEME. If appropriate, the motifs are extended iteratively as long as there is sequence preference in the flanking region, and refined in the same EM process.
The inventors associated a peak to its closest TSS within the region flanked by CTCF binding sites, which were identified in a ChIP-seq experiment on human CD4+ T cells (GEO accession number GSE12889/GSM325895).

[1] = repeat family DNA/TcMar-Mariner
[2] = repeat family DNA/hAT-Blackjack

## DUX4-fl: full-length DUX4 protein (SEQ ID NO:110), expressed from lentiviral or pCS2 vectors or in vitro translated
  enrichment of binding in the MaLR family of retrotransposons: ~10 fold
  share of sequences under the peaks with a second larger (LTR) motif: Approximately 30%
P-value threshold 10^−10, background peaks subtracted
  number of ChIP-Seq peaks: 62,028 peaks
P-value threshold 10^−15, background peaks subtracted
  number of ChIP-Seq peaks: 39,737 peaks
De novo motif analysis
  share of peaks with motif TAAYBBAATCA near the center: greater than 90%
AVPI1, chr10, dist2tss 126
  max.cov (peak height): 56
BZW2, chr7, dist2tss 1939
  max.cov (peak height): 63
BZW2, chr7, dist2tss 1955
  max.cov (peak height): 86
C1orf63, chr1, dist2tss −1326
  max.cov (peak height): 132
C6orf191, chr6, dist2tss 61
  max.cov (peak height): 250
C14orf102, chr14, dist2tss −558
  max.cov (peak height): 159
C14orf138, chr14, dist2tss 326
  max.cov (peak height): 53
C14orf138, chr14, dist2tss −4696
  max.cov (peak height): 50
C21orf91, chr21, dist2tss −803
  max.cov (peak height): 274
CBARA1, chr10, dist2tss 2340
  max.cov (peak height): 70
CBARA1, chr10, dist2tss 4786
  max.cov (peak height): 250
CCNA1, chr13, dist2tss 1874
  max.cov (peak height): 58
CCNA1, chr13, dist2tss −2425
  max.cov (peak height): 56
CCNJ, chr10, dist2tss −637
  max.cov (peak height): 265
CLDN14, chr21, dist2tss −2523
  max.cov (peak height): 96
CLK1, chr2, dist2tss 4634
  max.cov (peak height): 163
CSE1L, chr20, dist2tss −1935
  max.cov (peak height): 57
CSE1L, chr20, dist2tss −5914
  max.cov (peak height): 53
CTNNAL1, chr9, dist2tss 641
  max.cov (peak height): 198
CTR9, chr11, dist2tss 1913
  max.cov (peak height): 46
DBR1, chr3, dist2tss 3981
  max.cov (peak height): 117
DDX47, chr12, dist2tss −4416
  max.cov (peak height): 55
DEFB103A, chr8, dist2tss −2289
  max.cov (peak height): 55
DENND2C, chr1, dist2tss −3169
  max.cov (peak height): 116
EGLN1, chr1, dist2tss −1
  max.cov (peak height): 205
EXOSC10, chr1, dist2tss 150
  max.cov (peak height): 139
FAM90A1, chr12, dist2tss −1597
  max.cov (peak height): 129
FBXO33, chr14, dist2tss −2226
  max.cov (peak height): 117
FRG2B, chr10, dist2tss 598
  max.cov (peak height): 200
GPBAR1, chr2, dist2tss −224
  max.cov (peak height): 150
GTF2F1, chr19, dist2tss 134
  max.cov (peak height): 83
HOXB2, chr17, dist2tss −2471
  max.cov (peak height): 283
JUP, chr17, dist2tss −701
  max.cov (peak height): 177
KDM5B, chr1, dist2tss 301
  max.cov (peak height): 93
KIF21A, chr12, dist2tss −1030
  max.cov (peak height): 37
KIF21A, chr12, dist2tss −4249
  max.cov (peak height): 73
MAPKAP1, chr9, dist2tss 3619
  max.cov (peak height): 153
MAPKAP1, chr9, dist2tss −4397
  max.cov (peak height): 69
MAST4, chr5, dist2tss −1253
  max.cov (peak height): 269
MED13, chr17, dist2tss −2755
  max.cov (peak height): 43
NANS, chr9, dist2tss 1843
  max.cov (peak height): 85
NFYA, chr6, dist2tss 49
  max.cov (peak height): 159
PABPN1, chr14, dist2tss −529
  max.cov (peak height): 257
PANX2, chr22, dist2tss −2040
  max.cov (peak height): 118
PELI1, chr2, dist2tss 4936
  max.cov (peak height): 85
PNP, chr14, dist2tss −104
  max.cov (peak height): 344
PPP2R2B, chr5, dist2tss 2498
  max.cov (peak height): 91
PRAMEF12, chr1, dist2tss −1230
  max.cov (peak height): 99
PRPF18, chr10, dist2tss 3230
  max.cov (peak height): 57
PRR4, chr12, dist2tss 83
  max.cov (peak height): 54
PTP4A1, chr6, dist2tss −2227
  max.cov (peak height): 105
PVRL3, chr3, dist2tss 2678
  max.cov (peak height): 51
RBBP6, chr16, dist2tss −1619
  max.cov (peak height): 76
RBBP6, chr16, dist2tss −1922
  max.cov (peak height): 323
RBBP6, chr16, dist2tss −4040
  max.cov (peak height): 46
RFPL1, chr22, dist2tss −3042
  max.cov (peak height): 124
RFPL2, chr22, dist2tss 3057
  max.cov (peak height): 129
RFPL2, chr22, dist2tss −2853
  max.cov (peak height): 118
RFPL4B, chr6, dist2tss −321
  max.cov (peak height): 232
RTN4, chr2, dist2tss 1853
  max.cov (peak height): 115
RTN4, chr2, dist2tss −2562
  max.cov (peak height): 52
SAMD8, chr10, dist2tss 3338
  max.cov (peak height): 43
SEC61A2, chr10, dist2tss −1861
  max.cov (peak height): 172
SFRS2B, chr11, dist2tss 42
  max.cov (peak height): 373
SH3GL2, chr9, dist2tss −4600
  max.cov (peak height): 88
SIAH1, chr16, dist2tss −2337
  max.cov (peak height): 118
SNAI1, chr20, dist2tss 769
  max.cov (peak height): 62
SON, chr21, dist2tss −2951
  max.cov (peak height): 244
SPRYD5, chr11, dist2tss −2855
  max.cov (peak height): 133
SPTY2D1, chr11, dist2tss 5934
  max.cov (peak height): 74
SPTY2D1, chr11, dist2tss −797
  max.cov (peak height): 105
SRRT, chr7, dist2tss 1546
  max.cov (peak height): 128
SYNJ1, chr21, dist2tss −766
  max.cov (peak height): 229
TAF4B, chr18, dist2tss −1741
  max.cov (peak height): 65
TFIP11, chr22, dist2tss −1353
  max.cov (peak height): 234
TRIM43, chr2, dist2tss 1385
  max.cov (peak height): 47
TRIM43, chr2, dist2tss −5584
  max.cov (peak height): 85
TRIM48, chr11, dist2tss −151
  max.cov (peak height): 178
TRIM49L1, chr11, dist2tss 200
  max.cov (peak height): 85
TRIM49L2, chr11, dist2tss −202
  max.cov (peak height): 109
USP29, chr19, dist2tss 2090
  max.cov (peak height): 104
USP29, chr19, dist2tss 3676
  max.cov (peak height): 66
ZNF217, chr20, dist2tss 3546
  max.cov (peak height): 122
ZNF217, chr20, dist2tss −2168
  max.cov (peak height): 55
ZNF296, chr19, dist2tss 182
  max.cov (peak height): 110
ZNF705A, chr12, dist2tss −5106
  max.cov (peak height): 224
ZSCAN4, chr19, dist2tss 1430
  max.cov (peak height): 364
ZSCAN5B, chr19, dist2tss 4892
  max.cov (peak height): 89
ZSCAN5B, chr19, dist2tss −4101
  max.cov (peak height): 67
ZSCAN5B, chr19, dist2tss −5014
  max.cov (peak height): 98
hCG_1651160, chr7, dist2tss −192
  max.cov (peak height): 215
hCG_1651160, chr7, dist2tss −892
  max.cov (peak height): 114
[1]
  DUX4-fl Binding Prevalence (fraction of all DUX4-fl peaks): 0.00105
  DUX4-fl Enrichment (binding prevalence/overall genome prevalence): 1.14
Repeat family DNA/TcMar-Tigger
  DUX4-fl Binding Prevalence (fraction of all DUX4-fl peaks): 0.0124
  DUX4-fl Enrichment (binding prevalence/overall genome prevalence): 1.11
[2]
  DUX4-fl Binding Prevalence (fraction of all DUX4-fl peaks): 0.00064
  DUX4-fl Enrichment (binding prevalence/overall genome prevalence): 0.57
Repeat family DNA/hAT-Charlie
  DUX4-fl Binding Prevalence (fraction of all DUX4-fl peaks): 0.00761
  DUX4-fl Enrichment (binding prevalence/overall genome prevalence): 0.51
Repeat family DNA/hAT-Tip100
  DUX4-fl Binding Prevalence (fraction of all DUX4-fl peaks): 0.00098
  DUX4-fl Enrichment (binding prevalence/overall genome prevalence): 0.45
Repeat family DNA/hAT?
  DUX4-fl Binding Prevalence (fraction of all DUX4-fl peaks): 0.00016
  DUX4-fl Enrichment (binding prevalence/overall genome prevalence): 0.94
Repeat family LINE/CR1
  DUX4-fl Binding Prevalence (fraction of all DUX4-fl peaks): 0.00356
  DUX4-fl Enrichment (binding prevalence/overall genome prevalence): 1.00
Repeat family LINE/L1
  DUX4-fl Binding Prevalence (fraction of all DUX4-fl peaks): 0.0938
  DUX4-fl Enrichment (binding prevalence/overall genome prevalence): 0.58
Repeat family LINE/L2
  DUX4-fl Binding Prevalence (fraction of all DUX4-fl peaks): 0.02978
  DUX4-fl Enrichment (binding prevalence/overall genome prevalence): 0.86
Repeat family LTR/ERV
  DUX4-fl Binding Prevalence (fraction of all DUX4-fl peaks): 0.00032
  DUX4-fl Enrichment (binding prevalence/overall genome prevalence): 5.33
Repeat family LTR/ERV1
  DUX4-fl Binding Prevalence (fraction of all DUX4-fl peaks): 0.01878
  DUX4-fl Enrichment (binding prevalence/overall genome prevalence): 0.72
Repeat family LTR/ERVK
  DUX4-fl Binding Prevalence (fraction of all DUX4-fl peaks): 0.00803
  DUX4-fl Enrichment (binding prevalence/overall genome prevalence): 2.97
Repeat family LTR/ERVL
  DUX4-fl Binding Prevalence (fraction of all DUX4-fl peaks): 0.04558
  DUX4-fl Enrichment (binding prevalence/overall genome prevalence): 2.50
Repeat family LTR/ERVL-MaLR
  DUX4-fl Binding Prevalence (fraction of all DUX4-fl peaks): 0.3572
  DUX4-fl Enrichment (binding prevalence/overall genome prevalence): 9.92
Repeat family LTR/Gypsy
  DUX4-fl Binding Prevalence (fraction of all DUX4-fl peaks): 0.00081
  DUX4-fl Enrichment (binding prevalence/overall genome prevalence): 1.07
Repeat family SINE/Alu
  DUX4-fl Binding Prevalence (fraction of all DUX4-fl peaks): 0.00777
  DUX4-fl Enrichment (binding prevalence/overall genome prevalence): 0.08
Repeat family SINE/MIR
  DUX4-fl Binding Prevalence (fraction of all DUX4-fl peaks): 0.02317
  DUX4-fl Enrichment (binding prevalence/overall genome prevalence): 0.82
Repeat family SINE/tRNA
  DUX4-fl Binding Prevalence (fraction of all DUX4-fl peaks): 0.00011
  DUX4-fl Enrichment (binding prevalence/overall genome prevalence): 1.57
Repeat family Satellite
  DUX4-fl Binding Prevalence (fraction of all DUX4-fl peaks): 0.00068
  DUX4-fl Enrichment (binding prevalence/overall genome prevalence): 0.66
Repeat family Satellite/centr
  DUX4-fl Binding Prevalence (fraction of all DUX4-fl peaks): 0.00047
  DUX4-fl Enrichment (binding prevalence/overall genome prevalence): 0.19
Repeat family Simple_repeat
  DUX4-fl Binding Prevalence (fraction of all DUX4-fl peaks): 0.00442
  DUX4-fl Enrichment (binding prevalence/overall genome prevalence): 0.53
Repeat family Unknown
  DUX4-fl Binding Prevalence (fraction of all DUX4-fl peaks): 0.00063
  DUX4-fl Enrichment (binding prevalence/overall genome prevalence): 1.47
Repeat family rRNA
  DUX4-fl Binding Prevalence (fraction of all DUX4-fl peaks): 1.00E−04
  DUX4-fl Enrichment (binding prevalence/overall genome prevalence): 1.67
